The values below come from patent US12503438B2, “Compounds for the treatment of kinase-dependent disorders” (Exelixis, Inc., priority 2019, dated 2025).

For the assay, the target named is Met (Homo sapiens, UniProt P08581). Briefly: Met autophosphorylation ELISA in PC-3 cells. The format is cell-based. Also on record: endogenous in cells; host or cells: PC-3 prostate cancer cells (ATCC #CRL-1435). Conditions: cellular activity, HGF-stimulated, phospho-Met ELISA, read-out: c-Met IC50. The protocol:
PC-3 prostate cancer cells (ATCC #CRL-1435) were seeded at 4×10^4 cells/well onto 24-well plates (Greiner #662165), in DMEM (Thermo Fisher #11995-040) containing 10% FBS (Thermo Fisher #26140-079), 1% MEM NEAA (Thermo Fisher #11140-050), 1% GlutaMax (Thermo Fisher #35050-061), and 1% Penicillin Streptomycin (Thermo Fisher #15140-122). PC-3 cells were incubated at 37° C., 5% CO2 for 24 h and then starved for 3 h in serum-free medium. Test compounds were serially diluted to produce an 8-point dose curve in fresh serum-free medium to a final concentration of 0.3% DMSO (vehicle) and added to the cells and incubated for 1 h. Cells were then stimulated with 100 ng/mL recombinant human HGF (R&D Systems #294-HG-250) for 10 min, washed with cold PBS and immediately lysed with 130 μL of cold 1× lysis buffer [20 mM Tris, 137 mM sodium chloride, 2 mM EDTA, 10% glycerol, 1% NP-40 alternative, 1 mM activated sodium orthovanadate, 1 mM PefaBloc SC (Sigma-Aldrich #11429868001), protease/phosphatase inhibitor tablet (Thermo Fisher #A32959)]. Lysates were clarified by centrifugation and 100 μL/well added into the PathScan phospho-Met (panTyr) Sandwich ELISA (Cell Signaling Technology #7333). Assay was performed according to manufacturer's instructions. Positive control wells (100% activity) contained HGF-stimulated, DMSO-treated cell lysates. Negative control wells (0% activity) contained HGF-stimulated, reference inhibitor-treated cell lysates. IC50 values were calculated by nonlinear regression analysis using a 4-parameter logistic curve fit in ActivityBase XE (IDBS).

Met, sequence (P08581 25-1390): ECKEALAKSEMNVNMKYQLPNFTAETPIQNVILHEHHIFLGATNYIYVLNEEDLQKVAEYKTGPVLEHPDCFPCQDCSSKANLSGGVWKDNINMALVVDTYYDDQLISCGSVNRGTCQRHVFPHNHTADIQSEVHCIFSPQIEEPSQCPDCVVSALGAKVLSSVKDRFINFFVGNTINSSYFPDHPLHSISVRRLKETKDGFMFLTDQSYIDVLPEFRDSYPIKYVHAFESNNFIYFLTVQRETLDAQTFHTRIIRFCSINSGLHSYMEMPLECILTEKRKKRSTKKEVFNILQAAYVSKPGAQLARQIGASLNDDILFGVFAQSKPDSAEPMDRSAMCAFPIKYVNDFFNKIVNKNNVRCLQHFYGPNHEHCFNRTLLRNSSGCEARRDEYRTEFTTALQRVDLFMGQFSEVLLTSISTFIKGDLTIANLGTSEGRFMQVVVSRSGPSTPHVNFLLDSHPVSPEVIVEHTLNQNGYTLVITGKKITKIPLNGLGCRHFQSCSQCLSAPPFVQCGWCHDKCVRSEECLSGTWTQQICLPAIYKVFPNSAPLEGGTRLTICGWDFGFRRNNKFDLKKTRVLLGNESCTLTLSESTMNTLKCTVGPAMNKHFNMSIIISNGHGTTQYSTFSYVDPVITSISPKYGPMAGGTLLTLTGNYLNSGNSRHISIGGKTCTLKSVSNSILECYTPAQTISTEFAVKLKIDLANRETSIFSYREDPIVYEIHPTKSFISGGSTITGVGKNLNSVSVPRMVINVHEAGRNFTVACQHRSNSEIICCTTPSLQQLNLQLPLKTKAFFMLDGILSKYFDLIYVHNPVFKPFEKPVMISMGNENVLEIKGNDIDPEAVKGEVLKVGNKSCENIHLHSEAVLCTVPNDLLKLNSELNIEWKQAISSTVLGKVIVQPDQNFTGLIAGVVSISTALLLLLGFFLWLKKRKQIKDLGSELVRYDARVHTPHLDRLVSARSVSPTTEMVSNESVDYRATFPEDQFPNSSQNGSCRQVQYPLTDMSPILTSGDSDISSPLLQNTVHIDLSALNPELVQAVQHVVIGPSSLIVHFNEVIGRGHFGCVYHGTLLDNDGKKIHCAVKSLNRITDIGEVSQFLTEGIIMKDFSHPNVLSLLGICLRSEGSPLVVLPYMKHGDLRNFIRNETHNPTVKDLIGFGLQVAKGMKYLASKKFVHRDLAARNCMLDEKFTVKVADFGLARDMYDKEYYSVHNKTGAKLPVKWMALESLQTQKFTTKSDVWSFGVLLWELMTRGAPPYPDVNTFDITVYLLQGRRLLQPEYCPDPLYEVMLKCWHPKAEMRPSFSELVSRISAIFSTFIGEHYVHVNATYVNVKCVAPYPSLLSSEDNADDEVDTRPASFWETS

On to `Cn1cc(-c2ccc3c(Oc4ccc(NC(=O)C5(C(=O)Nc6ccc(F)cc6)CC5)cc4)ccnc3c2)ccc1=O` [Compound 119, 1-N′-(4-Fluorophenyl)-1-N-[4-[7-(1-methyl-6-oxopyridin-3-yl)quinolin-4-yl]oxyphenyl]cyclopropane-1,1-dicarboxamide], for which the IC50 lay within 10 to 100 nM.
The same measure for `N#Cc1cncc(-c2ccc3c(Oc4ccc(NC(=O)C5(C(=O)Nc6ccc(F)cc6)CC5)cc4)ccnc3c2)c1` [Compound 40, 1-N-[4-[7-(5-Cyanopyridin-3-yl)quinolin-4-yl]oxyphenyl]-1-N′-(4-fluorophenyl)cyclopropane-1,1-dicarboxamide]: 10 to 100 nM; for `N#Cc1cc(-c2ccc3c(Oc4ccc(NC(=O)C5(C(=O)Nc6ccc(F)cc6)CC5)cc4)ccnc3c2)ccn1` [Compound 34, 1-N-[4-[7-(2-Cyanopyridin-4-yl)quinolin-4-yl]oxyphenyl]-1-N′-(4-fluorophenyl)cyclopropane-1,1-dicarboxamide]: 10 to 100 nM.
The same measure for `O=C(Nc1ccc(F)cc1)C1(C(=O)Nc2ccc(Oc3ccnc4cc(-c5ccc(F)nc5)ccc34)cc2)CC1` [Compound 41, 1-N′-(4-Fluorophenyl)-1-N-[4-[7-(6-fluoropyridin-3-yl)quinolin-4-yl]oxyphenyl]cyclopropane-1,1-dicarboxamide]: 10 to 100 nM; for `Cc1cc2c(Oc3ccc(NC(=O)C4(C(=O)Nc5ccc(F)cc5)CC4)cc3F)ccnc2cc1-c1ncc[nH]1` [Compound 122, 1-N′-[3-Fluoro-4-[7-(1H-imidazol-2-yl)-6-methylquinolin-4-yl]oxyphenyl]-1-N-(4-fluorophenyl)cyclopropane-1,1-dicarboxamide]: 10 to 100 nM; for `O=C(Nc1ccc(F)cc1)C1(C(=O)Nc2ccc(Oc3ccnc4cc(-c5cncs5)ccc34)cc2)CC1` [Compound 116, 1-N′-(4-Fluorophenyl)-1-N-[4-[7-(1,3-thiazol-5-yl)quinolin-4-yl]oxyphenyl]cyclopropane-1,1-dicarboxamide]: 10 to 100 nM.
The same measure for `O=C(Nc1ccc(F)cc1)C1(C(=O)Nc2ccc(Oc3ccnc4cc(-c5cccnc5)ccc34)c(F)c2)CC1` [Compound 113, 1-N-(4-Fluorophenyl)-1-N′-[3-fluoro-4-(7-pyridin-3-ylquinolin-4-yl)oxyphenyl]cyclopropane-1,1-dicarboxamide]: 10 to 100 nM; for `Nc1ccc(-c2ccc3c(Oc4ccc(NC(=O)C5(C(=O)Nc6ccc(F)cc6)CC5)cc4)ccnc3c2)cn1` [Compound 38, 1-N-[4-[7-(6-Aminopyridin-3-yl)quinolin-4-yl]oxyphenyl]-1-N′-(4-fluorophenyl)cyclopropane-1,1-dicarboxamide]: 10 to 100 nM; for `COc1cncc(-c2ccc3c(Oc4ccc(NC(=O)C5(C(=O)Nc6ccc(F)cc6)CC5)cc4)ccnc3c2)c1` [Compound 47, 1-N′-(4-Fluorophenyl)-1-N-[4-[7-(5-methoxypyridin-3-yl)quinolin-4-yl]oxyphenyl]cyclopropane-1,1-dicarboxamide]: 100 to 300 nM.
For `Cc1cc2c(Oc3c(F)cc(NC(=O)C4(C(=O)Nc5ccc(F)cc5)CC4)c(F)c3F)ccnc2cc1-c1cnn(C)c1` [Compound 110, 1-N-(4-Fluorophenyl)-1-N′-[2,3,5-trifluoro-4-[6-methyl-7-(1-methylpyrazol-4-yl)quinolin-4-yl]oxyphenyl]cyclopropane-1,1-dicarboxamide], the IC50 was in the range of 10 to 100 nM.
In the case of `Cc1cc2c(Oc3ccc(NC(=O)C4(C(=O)Nc5ccc(F)cc5)CC4)cc3)ccnc2cc1-c1ncc[nH]1` [Compound 120, 1-N′-(4-Fluorophenyl)-1-N-[4-[7-(1H-imidazol-2-yl)-6-methylquinolin-4-yl]oxyphenyl]cyclopropane-1,1-dicarboxamide] it was 10 to 100 nM; in that of `O=C(Nc1ccc(F)cc1)C1(C(=O)Nc2cc(F)c(Oc3ccnc4cc(-c5cnn(C(F)F)c5)ccc34)cc2F)CC1` [Compound 118, 1-N′-[4-[7-[1-(Difluoromethyl)pyrazol-4-yl]quinolin-4-yl]oxy-2,5-difluorophenyl]-1-N-(4-fluorophenyl)cyclopropane-1,1-dicarboxamide], 10 to 100 nM; in that of `Cc1cncc(-c2ccc3c(Oc4ccc(NC(=O)C5(C(=O)Nc6ccc(F)cc6)CC5)cc4)ccnc3c2)c1` [Compound 46, 1-N′-(4-Fluorophenyl)-1-N-[4-[7-(5-methylpyridin-3-yl)quinolin-4-yl]oxyphenyl]cyclopropane-1,1-dicarboxamide], 100 to 300 nM.
In the case of `O=C(Nc1ccc(F)cc1)C1(C(=O)Nc2ccc(Oc3ccnc4cc(-c5cnn(C(F)F)c5)ccc34)c(F)c2)CC1` [Compound 123, 1-N′-[4-[7-[1-(Difluoromethyl)pyrazol-4-yl]quinolin-4-yl]oxy-3-fluorophenyl]-1-N-(4-fluorophenyl)cyclopropane-1,1-dicarboxamide] it was 10 to 100 nM.
For `O=C(Nc1ccc(F)cc1)C1(C(=O)Nc2ccc(Oc3ccnc4cc(-c5cnn6c5CCC6)ccc34)cc2)CC1` [Compound 29, 1-N-[4-[7-(5,6-Dihydro-4H-pyrrolo[1,2-b]pyrazol-3-yl)quinolin-4-yl]oxyphenyl]-1-N′-(4-fluorophenyl)cyclopropane-1,1-dicarboxamide], the IC50 is 10 to 100 nM.
`O=C(Nc1ccc(F)cc1)C1(C(=O)Nc2ccc(Oc3ccnc4cc(-c5cnc6[nH]ncc6c5)ccc34)cc2)CC1` [Compound 39, 1-N′-(4-Fluorophenyl)-1-N-[4-[7-(1H-pyrazolo[3,4-b]pyridin-5-yl)quinolin-4-yl]oxyphenyl]cyclopropane-1,1-dicarboxamide]: the IC50 fell in the range of 10 to 100 nM.
The same measure for `CC(C)Oc1ccc(-c2ccc3c(Oc4ccc(NC(=O)C5(C(=O)Nc6ccc(F)cc6)CC5)cc4)ccnc3c2)cn1` [Compound 50, 1-N′-(4-Fluorophenyl)-1-N-[4-[7-(6-propan-2-yloxypyridin-3-yl)quinolin-4-yl]oxyphenyl]cyclopropane-1,1-dicarboxamide]: 100 to 300 nM; for `CN1CCN(c2cc(-c3ccc4c(Oc5ccc(NC(=O)C6(C(=O)Nc7ccc(F)cc7)CC6)cc5)ccnc4c3)ccn2)CC1` [Compound 111, 1-N′-(4-Fluorophenyl)-1-N-[4-[7-[2-(4-methylpiperazin-1-yl)pyridin-4-yl]quinolin-4-yl]oxyphenyl]cyclopropane-1,1-dicarboxamide]: 100 to 300 nM; for `Cn1ccc(-c2ccc3c(Oc4ccc(NC(=O)C5(C(=O)Nc6ccc(F)cc6)CC5)cc4)ccnc3c2)cc1=O` [Compound 117, 1-N′-(4-Fluorophenyl)-1-N-[4-[7-(1-methyl-2-oxopyridin-4-yl)quinolin-4-yl]oxyphenyl]cyclopropane-1,1-dicarboxamide]: 10 to 100 nM.
For `COc1cc(-c2ccc3c(Oc4ccc(NC(=O)C5(C(=O)Nc6ccc(F)cc6)CC5)cc4)ccnc3c2)ccn1` [Compound 31, 1-N′-(4-Fluorophenyl)-1-N-[4-[7-(2-methoxypyridin-4-yl)quinolin-4-yl]oxyphenyl]cyclopropane-1,1-dicarboxamide], the IC50 is 10 to 100 nM.
The same measure for `N#Cc1ccc(-c2ccc3c(Oc4ccc(NC(=O)C5(C(=O)Nc6ccc(F)cc6)CC5)cc4)ccnc3c2)cn1` [Compound 42, 1-N-[4-[7-(6-Cyanopyridin-3-yl)quinolin-4-yl]oxyphenyl]-1-N′-(4-fluorophenyl)cyclopropane-1,1-dicarboxamide]: 10 to 100 nM; for `O=C(Nc1ccc(F)cc1)C1(C(=O)Nc2ccc(Oc3ccnc4cc(-c5cccnc5O)ccc34)cc2)CC1` [Compound 52, 1-N′-(4-Fluorophenyl)-1-N-[4-[7-(2-hydroxypyridin-3-yl)quinolin-4-yl]oxyphenyl]cyclopropane-1,1-dicarboxamide]: 10 to 100 nM.
In the case of `O=C(Nc1ccc(F)cc1)C1(C(=O)Nc2ccc(Oc3ccnc4cc(-c5ccncn5)ccc34)cc2)CC1` [Compound 114, 1-N′-(4-Fluorophenyl)-1-N-[4-(7-pyrimidin-4-ylquinolin-4-yl)oxyphenyl]cyclopropane-1,1-dicarboxamide] it was 10 to 100 nM; in that of `CC(C)n1cc(-c2ccc3c(Oc4ccc(NC(=O)C5(C(=O)Nc6ccc(F)cc6)CC5)cc4)ccnc3c2)cn1` [Compound 21, 1-N′-(4-Fluorophenyl)-1-N-[4-[7-(1-propan-2-ylpyrazol-4-yl)quinolin-4-yl]oxyphenyl]cyclopropane-1,1-dicarboxamide], 10 to 100 nM; in that of `O=C(Nc1ccc(F)cc1)C1(C(=O)Nc2cc(F)c(Oc3ccnc4cc(-c5cccnc5)ccc34)cc2F)CC1` [Compound 115, 1-N′-[2,5-Difluoro-4-(7-pyridin-3-ylquinolin-4-yl)oxyphenyl]-1-N-(4-fluorophenyl)cyclopropane-1,1-dicarboxamide], 10 to 100 nM.
For the molecule `O=C(Nc1ccc(F)cc1)C1(C(=O)Nc2ccc(Oc3ccnc4cc(-c5cncc(F)c5)ccc34)cc2)CC1` [Compound 45, 1-N′-(4-Fluorophenyl)-1-N-[4-[7-(5-fluoropyridin-3-yl)quinolin-4-yl]oxyphenyl]cyclopropane-1,1-dicarboxamide], the IC50 is 100 to 300 nM.
